Assay results published in PubChem BioAssay AID256 (DTP/NCI, 2004).
“And” between values parts separate entries of the source, which are not always exact repeats. Equal values may be shown once. Inconclusive results and toxic doses are left out. How the source made its calls: active means survival T/C of 150% or more; inactive means T/C below 125% in these data.

Test system: CD2F1 mice, L1210 leukemia ip, survival T/C
Assay: NCI In Vivo Anticancer Drug Screen. Data for tumor model L1210 Leukemia (intraperitoneal) in CD2F1 (CDF1) mice
Details: higher = longer survival
How it was run: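 Mice carrying a transplanted tumor received test compound or vehicle alone. The value is the measurement in the treated group divided by that in the vehicle-treated control group.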

[1] = endpoint: mean survival time, dose: 100.0 mg/kg/injection, schedule: Q01DX001 (ip), vehicle: saline
[2] = endpoint: mean survival time, dose: 200.0 mg/kg/injection, schedule: Q01DX001 (ip), vehicle: saline
[3] = endpoint: mean survival time, dose: 400.0 mg/kg/injection, schedule: Q01DX001 (ip), vehicle: saline
[4] = endpoint: mean survival time, dose: 100.0 mg/kg/injection, schedule: Q04DX003 (ip), vehicle: saline with Tween-80
[5] = endpoint: mean survival time, dose: 200.0 mg/kg/injection, schedule: Q04DX003 (ip), vehicle: saline with Tween-80
[6] = endpoint: mean survival time, dose: 400.0 mg/kg/injection, schedule: Q04DX003 (ip), vehicle: saline with Tween-80
[7] = endpoint: mean survival time, dose: 75.0 mg/kg/injection, schedule: Q01DX001 (ip), vehicle: saline
[8] = endpoint: mean survival time, dose: 150.0 mg/kg/injection, schedule: Q01DX001 (ip), vehicle: saline
[9] = endpoint: mean survival time, dose: 300.0 mg/kg/injection, schedule: Q01DX001 (ip), vehicle: saline
[10] = endpoint: mean survival time, dose: 50.0 mg/kg/injection, schedule: Q01DX009 (ip), vehicle: saline with Tween-80
[11] = endpoint: mean survival time, dose: 100.0 mg/kg/injection, schedule: Q01DX009 (ip), vehicle: saline with Tween-80
[12] = endpoint: mean survival time, dose: 200.0 mg/kg/injection, schedule: Q01DX009 (ip), vehicle: saline with Tween-80
[13] = endpoint: mean survival time, dose: 100.0 mg/kg/injection, schedule: Q04DX002 (ip), vehicle: saline with Tween-80
[14] = endpoint: mean survival time, dose: 200.0 mg/kg/injection, schedule: Q04DX002 (ip), vehicle: saline with Tween-80
[15] = endpoint: mean survival time, dose: 400.0 mg/kg/injection, schedule: Q04DX002 (ip), vehicle: saline with Tween-80
[16] = endpoint: mean survival time, dose: 400.0 mg/kg/injection, schedule: Q01DX009 (ip), vehicle: saline with Tween-80
[17] = endpoint: mean survival time, dose: 100.0 mg/kg/injection, schedule: Q01DX001 (ip), vehicle: saline with Tween-80
[18] = endpoint: mean survival time, dose: 200.0 mg/kg/injection, schedule: Q01DX001 (ip), vehicle: saline with Tween-80
[19] = endpoint: mean survival time, dose: 400.0 mg/kg/injection, schedule: Q01DX001 (ip), vehicle: saline with Tween-80
[20] = endpoint: mean survival time, dose: 100.0 mg/kg/injection, schedule: Q04DX003 (ip), vehicle: saline
[21] = endpoint: mean survival time, dose: 200.0 mg/kg/injection, schedule: Q04DX003 (ip), vehicle: saline
[22] = endpoint: mean survival time, dose: 400.0 mg/kg/injection, schedule: Q04DX003 (ip), vehicle: saline

Measured: T/C

CCN1CC2CCC(C(=O)O)(C2)C1=O (centres undefined)
inactive: [1] 98 % of control | [2] 106 % of control | [3] 102 % of control

CCCCCCCCC(=O)NCCCNC(=O)CCCCCCCC
inactive: endpoint: mean survival time, dose: 75.0 mg/kg/injection, schedule: Q04DX003 (ip), vehicle: saline 88 % of control | endpoint: mean survival time, dose: 150.0 mg/kg/injection, schedule: Q04DX003 (ip), vehicle: saline 88 % of control | endpoint: mean survival time, dose: 300.0 mg/kg/injection, schedule: Q04DX003 (ip), vehicle: saline 103 % of control

NCCCC(N)(C(=O)O)C(F)F (centres undefined)
inactive: endpoint: median survival time, dose: 50.0 mg/kg/injection, schedule: Q01DX009 (ip), vehicle: distilled water + alcohol 102 % of control | endpoint: median survival time, dose: 100.0 mg/kg/injection, schedule: Q01DX009 (ip), vehicle: distilled water + alcohol 102 % of control | endpoint: median survival time, dose: 200.0 mg/kg/injection, schedule: Q01DX009 (ip), vehicle: distilled water + alcohol 105 % of control | endpoint: median survival time, dose: 400.0 mg/kg/injection, schedule: Q01DX009 (ip), vehicle: distilled water + alcohol 113 % of control | endpoint: median survival time, dose: 800.0 mg/kg/injection, schedule: Q01DX009 (ip), vehicle: distilled water + alcohol 103 % of control | endpoint: median survival time, dose: 1.0 % drug in feed or water or air, schedule: Q#C X 1 (adlb), vehicle: water 103 % of control | endpoint: median survival time, dose: 3.0 % drug in feed or water or air, schedule: Q#C X 1 (adlb), vehicle: water 116 % of control

COc1cc2c(c(OC)c1O)-c1ccc(OC)c(=O)cc1[C@@H](NC(C)=O)CC2
inactive: endpoint: mean survival time, dose: 1.25 mg/kg/injection, schedule: Q01DX005 (ip), vehicle: Klucel (hydroxypropylcellulose) (HPC) 103 % of control | endpoint: mean survival time, dose: 2.5 mg/kg/injection, schedule: Q01DX005 (ip), vehicle: Klucel (hydroxypropylcellulose) (HPC) 104 % of control | endpoint: mean survival time, dose: 3.12 mg/kg/injection, schedule: Q01DX009 (ip), vehicle: saline 118 % of control | endpoint: mean survival time, dose: 5.0 mg/kg/injection, schedule: Q01DX005 (ip), vehicle: Klucel (hydroxypropylcellulose) (HPC) 110 % of control | endpoint: mean survival time, dose: 20.0 mg/kg/injection, schedule: Q01DX005 (ip), vehicle: Klucel (hydroxypropylcellulose) (HPC) 121 % of control | endpoint: mean survival time, dose: 40.0 mg/kg/injection, schedule: Q01DX005 (ip), vehicle: Klucel (hydroxypropylcellulose) (HPC) 110 % of control

OC1CCCCO1 (centres undefined)
inactive: [4] 100 % of control | [5] 103 % of control | [6] 103 % of control

CCC1Cc2c([nH]c(=O)n(-c3ccccc3)c2=O)O1 (centres undefined)
inactive: [1] 95 % of control | [2] 98 % of control | [3] 92 % of control

OCCNC(=S)SCc1ccccc1
inactive: [4] 94 % of control | [5] 100 % of control | [6] 98 % of control

CC1CC(C)(C)NC(c2ccccc2)O1 (centres undefined)
inactive: [4] 94 % of control | [5] 94 % of control | [6] 102 % of control

NCCCNc1ccc([N+](=O)[O-])cc1
inactive: [7] 98 % of control | [8] 106 % of control | [9] 98 % of control

CCCc1nc(N)nc(N)n1
inactive: [10] 104 % of control | [11] 104 % of control | [12] 116 % of control

C[n+]1ccc2ccccc2c1SC1CCC2CC3CC2C1C3 (centres undefined)
inactive: endpoint: mean survival time, dose: 10.0 mg/kg/injection, schedule: Q01DX009 (iv), vehicle: methylcellulose (MC) 97 % of control | endpoint: mean survival time, dose: 20.0 mg/kg/injection, schedule: Q01DX009 (iv), vehicle: methylcellulose (MC) 97 % of control

CN(C)C(=O)On1cccc1C#N
inactive: endpoint: mean survival time, dose: 0.78 mg/kg/injection, schedule: Q01DX001 (ip), vehicle: saline 95 % of control | endpoint: mean survival time, dose: 1.56 mg/kg/injection, schedule: Q01DX001 (ip), vehicle: saline 98 % of control | endpoint: mean survival time, dose: 3.13 mg/kg/injection, schedule: Q01DX001 (ip), vehicle: saline 98 % of control

C[N+](C)(C)C1(Cc2ccc(Br)cc2)c2ccccc2-c2ccccc21
inactive: endpoint: mean survival time, dose: 6.25 mg/kg/injection, schedule: Q04DX003 (ip), vehicle: saline with Tween-80 88 % of control | endpoint: mean survival time, dose: 12.5 mg/kg/injection, schedule: Q04DX003 (ip), vehicle: saline with Tween-80 88 % of control | endpoint: mean survival time, dose: 25.0 mg/kg/injection, schedule: Q04DX003 (ip), vehicle: saline with Tween-80 87 % of control | [4] 92 % of control

CC12CCC3C(CC=C4CC([Se]C(=N)N)CCC43C)C1CCC2=O (centres undefined)
inactive: endpoint: mean survival time, dose: 75.0 mg/kg/injection, schedule: Q01DX001 (ip), vehicle: steriod suspending solution 95 % of control | endpoint: mean survival time, dose: 150.0 mg/kg/injection, schedule: Q01DX001 (ip), vehicle: steriod suspending solution 95 % of control | endpoint: mean survival time, dose: 300.0 mg/kg/injection, schedule: Q01DX001 (ip), vehicle: steriod suspending solution 95 % of control

CCCCCCCCCCCCCCCC(=O)Nc1c(C)cccc1C
inactive: [13] 100 % of control | [14] 91 % of control | [15] 95 % of control

Cc1occc1S(N)(=O)=O
inactive: endpoint: mean survival time, dose: 75.0 mg/kg/injection, schedule: Q04DX002 (ip), vehicle: saline with Tween-80 120 % of control

CC(=O)C1=C(C)NC(C)=C(C(C)=O)C1c1ccccc1
inactive: [11] 103 % of control | [12] 107 % of control | [16] 107 % of control

Cc1ccc(-n2c(=S)[nH]c3ccccc3c2=O)cc1F
inactive: [17] 92 % of control | [11] 88 % of control | [18] 92 % of control | [12] 88 % of control | [19] 89 % of control | [16] 93 % of control

CC(=O)NC1=C(Sc2ccc(C)cc2)C(=O)c2ccccc2C1=O
inactive: [7] 96 % of control | [8] 98 % of control | [9] 108 % of control

CCCCCCCCCC(=O)NC(=S)Nc1c(C)cccc1C
inactive: endpoint: mean survival time, dose: 25.0 mg/kg/injection, schedule: Q01DX001 (ip), vehicle: saline with Tween-80 95 % of control | endpoint: mean survival time, dose: 50.0 mg/kg/injection, schedule: Q01DX001 (ip), vehicle: saline with Tween-80 95 % of control | [17] 92 % of control | [11] 92 % of control and 109 % of control | [13] 92 % of control and 96 % of control | [4] 98 % of control | [18] 91 % of control and 92 % of control | [12] 89 % of control and 98 % of control | [14] 98 % of control and 100 % of control | [5] 95 % of control | [19] 88 % of control | [16] 106 % of control | [15] 91 % of control and 96 % of control | [6] 90 % of control

CCOP(=S)(OCC)N1c2ccccc2Sc2ccccc21
inactive: [10] 95 % of control | [11] 90 % of control

COC(=O)CC(OC)OC
inactive: [20] 103 % of control | [21] 94 % of control | [22] 92 % of control

O=C(O)C(CCc1ccccc1)N1CCOCC1 (centres undefined)
inactive: [20] 98 % of control | [21] 98 % of control | [22] 101 % of control

Cc1cc(O)c(Br)c(C)c1Br
inactive: [11] 111 % of control | [4] 104 % of control | [12] 98 % of control | [5] 97 % of control | [16] 106 % of control | [6] 101 % of control

Nc1ccc(-c2ccc(N)c([N+](=O)[O-])c2)cc1[N+](=O)[O-]
inactive: [11] 98 % of control | [4] 86 % of control | [12] 94 % of control | [5] 89 % of control | [16] 95 % of control | [6] 86 % of control

O=C(NCCCl)NCCCl
inactive: endpoint: median survival time, dose: 267.0 mg/kg/injection, schedule: Q07DX003 (ip), vehicle: saline 103 % of control | endpoint: median survival time, dose: 400.0 mg/kg/injection, schedule: Q07DX003 (ip), vehicle: saline 97 % of control | endpoint: median survival time, dose: 600.0 mg/kg/injection, schedule: Q07DX003 (ip), vehicle: saline 94 % of control | endpoint: median survival time, dose: 800.0 mg/kg/injection, schedule: Q07DX003 (ip), vehicle: saline 99 % of control and 100 % of control

O=C(Nc1c(Cl)cccc1Cl)OCCOc1ccccc1Cl
inactive: [10] 98 % of control | [11] 98 % of control | [12] 98 % of control

O=C(SSC(=O)c1ccccc1)c1ccccc1
inactive: [11] 95 % of control | [4] 98 % of control | [12] 103 % of control | [5] 102 % of control | [16] 91 % of control | [6] 96 % of control

Nc1ncnc(N)c1NC(=O)c1ccc(Cl)c([N+](=O)[O-])c1
inactive: [4] 94 % of control | [5] 93 % of control | [6] 88 % of control

CN(CCC#N)C1=CCCC1
inactive: endpoint: mean survival time, dose: 100.0 mg/kg/injection, schedule: Q01DX009 (ip), vehicle: saline 102 % of control | endpoint: mean survival time, dose: 200.0 mg/kg/injection, schedule: Q01DX009 (ip), vehicle: saline 112 % of control | endpoint: mean survival time, dose: 400.0 mg/kg/injection, schedule: Q01DX009 (ip), vehicle: saline 105 % of control

CN(C)C(C)(C)CC(C)(C)C
inactive: [4] 96 % of control
